# PMC11189555, “Aryl amino acetamides prevent Plasmodium falciparum ring development via targeting the lipid-transfer protein PfSTART1” (Nature Communications, 2024)
# Test system: ring-stage parasites
# Assay: Parasite reduction ratio assay
# Assay type: cell-based, Plasmodium falciparum
# Procedure: Parasite reduction ratio assay. This was performed as previously described 9,10.
# Briefly, asynchronous ring -stage parasites at 0.5% parasitemia and 2% haematocrit were exposed to compounds at 10 x EC50 of growth for five days with daily drug renewal. After each 24 h, a well from each treatment group was taken and washed three times in complete RPMI and final volume adjusted to 2% haematocrit. The washed culture was then aliquoted into a 96 well U-bottom plate and a 1:3 serial dilution into fresh uninfected RBCs was performed with four technical replicates for each time point. Plates were maintained in normal culturing conditions: media was replaced, and fresh RBCs given 1-2 times a week for three weeks, after which parasite growth was measured via lactate dehydrogenase assays. The number of viable parasites was calculated using the formula xn-1 +1, where x is the dilution factor and n is the number of wells that contain parasite growth. The viable parasite value was then expressed in log units and parasite reduction ratio was calculated as a decrease in […]
compound,measurement,setting,value
"CCN(CC)CCCC(C)Nc1ccnc2cc(Cl)ccc12 (centres unmarked) [CQ, chloroquine, reference compound]",killing profile,"10xEC50: 75 nM CQ, 60 nM W-991",fast-acting
same,PRR,"Replicate 1, PRR calculations",4.528
same,log(parasite viability) +1,"Replicate 1, T=1",2.863
same,Parasite viability,"Replicate 1, T=1, 1:3 dilution",729
same,log(parasite viability) +1,"Replicate 1, T=2",0.6021
same,Parasite viability,"Replicate 1, T=2, 1:3 dilution",3
same,log(parasite viability) +1,"Replicate 1, T=3",0
same,Parasite viability,"Replicate 1, T=3, 1:3 dilution",0
same,log(parasite viability) +1,"Replicate 1, T=4",0
same,Parasite viability,"Replicate 1, T=4, 1:3 dilution",0
same,log(parasite viability) +1,"Replicate 1, T=5",0
same,Parasite viability,"Replicate 1, T=5, 1:3 dilution",0
same,log(parasite viability) +1 used in PRR calculations,"Replicate 2, Hours 0",5.248
same,PRR,"Replicate 2, PRR calculations",2.861
same,Parasite viability +1,"Replicate 2, T=1",19684
same,log(parasite viability) +1,"Replicate 2, T=1",4.294
same,Parasite viability,"Replicate 2, T=1, 1:3 dilution",19683
same,Parasite viability +1,"Replicate 2, T=2",10
same,log(parasite viability) +1,"Replicate 2, T=2",1
same,Parasite viability,"Replicate 2, T=2, 1:3 dilution",9
same,Parasite viability +1,"Replicate 2, T=3",244
same,log(parasite viability) +1,"Replicate 2, T=3",2.387
same,Parasite viability,"Replicate 2, T=3, 1:3 dilution",243
same,Parasite viability +1,"Replicate 2, T=4",82
same,log(parasite viability) +1,"Replicate 2, T=4",1.914
same,Parasite viability,"Replicate 2, T=4, 1:3 dilution",81
same,Parasite viability +1,"Replicate 2, T=5",1
same,log(parasite viability) +1,"Replicate 2, T=5",0
same,Parasite viability,"Replicate 2, T=5, 1:3 dilution",0
same,log(parasite viability) +1,"replicate 3, 0 hours, start value (UT T=0) used in PRR calculations",5.248
same,Parasite viability (1:3 dilution),"replicate 3, T=1",6561
same,log(parasite viability) +1,"replicate 3, T=1",3.817
same,Parasite viability (1:3 dilution),"replicate 3, T=2",9
same,log(parasite viability) +1,"replicate 3, T=2 (48 hours in PRR calculations)",1
same,Parasite viability (1:3 dilution),"replicate 3, T=3",0
same,log(parasite viability) +1,"replicate 3, T=3 (72 hours in PRR calculations)",0
same,Parasite viability (1:3 dilution),"replicate 3, T=4",0
same,log(parasite viability) +1,"replicate 3, T=4",0
same,Parasite viability (1:3 dilution),"replicate 3, T=5",0
same,log(parasite viability) +1,"replicate 3, T=5 (120 hours in PRR calculations)",0
same,PRR,"replicate 3, difference of log viability over 48 h (CQ 0-48 hours, W991 72-120 hours)",4.248
